Measured values as given in PubChem BioAssay AID330 (DTP/NCI, 2004).
Several values for one entry are separate records, joined by “and”; a condition that tells them apart may be missing. Equal entries are not always repeated. Inconclusive results and toxic doses are left out.

System: P388 leukemia ip, CD2F1 mice, survival T/C
Assay: NCI In Vivo Anticancer Drug Screen. Data for tumor model P388 Leukemia (intraperitoneal) in CD2F1 (CDF1) mice
Conditions: endpoint: median survival time, higher = longer survival
In short: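 Mice carrying the transplanted tumor received test compound or vehicle. Survival was recorded in each group, and the value is the treated-group measurement divided by that of the vehicle-treated control group.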

[1] = dose: 50.0 mg/kg/injection, schedule: Q01DX005 (ip), vehicle: Klucel (hydroxypropylcellulose) (HPC)
[2] = dose: 100.0 mg/kg/injection, schedule: Q01DX005 (ip), vehicle: Klucel (hydroxypropylcellulose) (HPC)
[3] = dose: 200.0 mg/kg/injection, schedule: Q01DX005 (ip), vehicle: Klucel (hydroxypropylcellulose) (HPC)
[4] = dose: 50.0 mg/kg/injection, schedule: Q01DX009 (ip), vehicle: saline with Tween-80
[5] = dose: 100.0 mg/kg/injection, schedule: Q01DX009 (ip), vehicle: saline with Tween-80
[6] = dose: 200.0 mg/kg/injection, schedule: Q01DX009 (ip), vehicle: saline with Tween-80

In the case of `CC(=O)Nn1c(N)nc2ccccc21`, the T/C (dose: 100.0 mg/kg/injection, schedule: Q04DX003 (ip), vehicle: saline) is reported as 100 % of control, the T/C (dose: 200.0 mg/kg/injection, schedule: Q04DX003 (ip), vehicle: saline) is reported as 109 % of control and the T/C (dose: 400.0 mg/kg/injection, schedule: Q04DX003 (ip), vehicle: saline) is reported as 96 % of control.

With `CN(c1ccccc1)C1CS(=O)(=O)OC2=C1CN(Cc1ccccc1)CC2` (stereo unspecified) the T/C (dose: 100.0 mg/kg/injection, schedule: Q04DX003 (ip), vehicle: saline with Tween-80) was 99 % of control, the T/C (dose: 200.0 mg/kg/injection, schedule: Q04DX003 (ip), vehicle: saline with Tween-80) was 94 % of control and the T/C (dose: 400.0 mg/kg/injection, schedule: Q04DX003 (ip), vehicle: saline with Tween-80) was 90 % of control.

In the case of `COC(=O)C1=NC1c1ccc(C)cc1` (stereo unspecified), the T/C (dose: 100.0 mg/kg/injection, schedule: Q01DX001 (ip), vehicle: saline with Tween-80) is reported as 104 % of control, the T/C (dose: 200.0 mg/kg/injection, schedule: Q01DX001 (ip), vehicle: saline with Tween-80) is reported as 110 % of control and the T/C (dose: 400.0 mg/kg/injection, schedule: Q01DX001 (ip), vehicle: saline with Tween-80) is reported as 100 % of control.

In the case of `COCCOCn1cccc1Cc1ccc(OC)cc1`, the T/C (dose: 100.0 mg/kg/injection, schedule: Q01DX001 (ip), vehicle: distilled water + Tween-80 + alcohol) is reported as 100 % of control, the T/C (dose: 200.0 mg/kg/injection, schedule: Q01DX001 (ip), vehicle: distilled water + Tween-80 + alcohol) is reported as 105 % of control and the T/C (dose: 400.0 mg/kg/injection, schedule: Q01DX001 (ip), vehicle: distilled water + Tween-80 + alcohol) is reported as 96 % of control.

For `CC1(C)COC(=O)/C1=C/C#N`, the T/C [1] was 106 % of control, the T/C [2] was 98 % of control and the T/C [3] was 90 % of control.

With `NCCCN1CCCC1` the T/C (dose: 50.0 mg/kg/injection, schedule: Q01DX005 (ip), vehicle: saline) was 95 % of control and the T/C (dose: 100.0 mg/kg/injection, schedule: Q01DX005 (ip), vehicle: saline) was 105 % of control.

For `COC(=O)c1c(C(=O)OC)c(-c2cccc(Cl)c2)n2c1CCC2`, the T/C (dose: 25.0 mg/kg/injection, schedule: Q01DX005 (ip), vehicle: saline with Tween-80) was 98 % of control, the T/C (dose: 50.0 mg/kg/injection, schedule: Q01DX005 (ip), vehicle: saline with Tween-80) was 100 % of control and the T/C (dose: 100.0 mg/kg/injection, schedule: Q01DX005 (ip), vehicle: saline with Tween-80) was 100 % of control and 93 % of control. The T/C (dose: 200.0 mg/kg/injection, schedule: Q01DX005 (ip), vehicle: saline with Tween-80) was 100 % of control.

With `COC(=O)[C@@]12OC[C@]34[C@H]([C@@H](O)[C@@H]1O)[C@@]1(C)CC(=O)C(O)=C(C)[C@@H]1C[C@H]3OC(=O)[C@H](OC(=O)/C=C(\C)C(C)C)[C@@H]24` the T/C (dose: 0.03 mg/kg/injection, schedule: Q01DX009 (ip), vehicle: saline + alcohol) was 108 % of control, the T/C (dose: 0.06 mg/kg/injection, schedule: Q01DX009 (sc), vehicle: saline + alcohol) was 107 % of control and the T/C (dose: 0.06 mg/kg/injection, schedule: Q03HX024 (ip), vehicle: saline + alcohol) was 152 % of control. For the same compound, the T/C (dose: 0.13 mg/kg/injection, schedule: Q01DX009 (ip), vehicle: saline with Tween-80) was 160 % of control, the T/C (dose: 0.13 mg/kg/injection, schedule: Q01DX009 (sc), vehicle: saline + alcohol) was 108 % of control and the T/C (dose: 0.13 mg/kg/injection, schedule: Q03HX024 (ip), vehicle: saline + alcohol) was 151 % of control. For the same compound, the T/C (dose: 0.25 mg/kg/injection, schedule: Q01DX009 (ip), vehicle: distilled water + Tween-80) was 155 % of control and 177 % of control, the T/C (dose: 0.25 mg/kg/injection, schedule: Q01DX009 (ip), vehicle: saline with Tween-80) was 156 % of control and the T/C (dose: 0.25 mg/kg/injection, schedule: Q01DX009 (sc), vehicle: saline + alcohol) was 106 % of control. The T/C (dose: 0.25 mg/kg/injection, schedule: Q03HX024 (ip), vehicle: saline + alcohol) was 164 % of control, the T/C (dose: 0.38 mg/kg/injection, schedule: Q01DX009 (ip), vehicle: saline + Tween-80 + alcohol) was 155 % of control and the T/C (dose: 0.5 mg/kg/injection, schedule: Q01DX009 (ip), vehicle: distilled water + Tween-80) was 155 % of control and 185 % of control. For the same compound, the T/C (dose: 0.5 mg/kg/injection, schedule: Q01DX009 (ip), vehicle: saline with Tween-80) was 169 % of control, the T/C (dose: 0.5 mg/kg/injection, schedule: Q01DX009 (oral), vehicle: saline + alcohol) was 102 % of control and the T/C (dose: 0.5 mg/kg/injection, schedule: Q01DX009 (sc), vehicle: saline + alcohol) was 110 % of control. For the same compound, the T/C (dose: 0.5 mg/kg/injection, schedule: Q08DX002 (ip), vehicle: saline + alcohol) was 101 % of control, the T/C (dose: 1.0 mg/kg/injection, schedule: Q01DX001 (ip), vehicle: saline + alcohol) was 111 % of control and the T/C (dose: 1.0 mg/kg/injection, schedule: Q01DX001 (sc), vehicle: saline + alcohol) was 109 % of control. For the same compound, the T/C (dose: 1.0 mg/kg/injection, schedule: Q01DX005 (ip), vehicle: water) was 155 % of control, the T/C (dose: 1.0 mg/kg/injection, schedule: Q01DX009 (ip), vehicle: distilled water + Tween-80) was 158 % of control and 166 % of control and the T/C (dose: 1.0 mg/kg/injection, schedule: Q01DX009 (ip), vehicle: saline with Tween-80) was 185 % of control. For the same compound, the T/C (dose: 1.0 mg/kg/injection, schedule: Q01DX009 (oral), vehicle: saline + alcohol) was 104 % of control, the T/C (dose: 1.0 mg/kg/injection, schedule: Q08DX002 (ip), vehicle: saline + alcohol) was 100 % of control and the T/C (dose: 2.0 mg/kg/injection, schedule: Q01DX001 (ip), vehicle: saline + alcohol) was 116 % of control. The T/C (dose: 2.0 mg/kg/injection, schedule: Q01DX001 (sc), vehicle: saline + alcohol) was 115 % of control, the T/C (dose: 2.0 mg/kg/injection, schedule: Q01DX009 (ip), vehicle: saline with Tween-80) was 209 % of control and the T/C (dose: 2.0 mg/kg/injection, schedule: Q01DX009 (oral), vehicle: saline + alcohol) was 104 % of control. For the same compound, the T/C (dose: 2.0 mg/kg/injection, schedule: Q08DX002 (ip), vehicle: saline + alcohol) was 102 % of control, the T/C (dose: 4.0 mg/kg/injection, schedule: Q01DX001 (ip), vehicle: saline + alcohol) was 120 % of control and the T/C (dose: 4.0 mg/kg/injection, schedule: Q01DX001 (oral), vehicle: saline + alcohol) was 106 % of control. For the same compound, the T/C (dose: 125.0 micrograms/kg/injection, schedule: Q01DX009 (ip), vehicle: saline + alcohol) was 124 % of control, the T/C (dose: 250.0 micrograms/kg/injection, schedule: Q01DX009 (ip), vehicle: saline + alcohol) was 155 % of control and the T/C (dose: 500.0 micrograms/kg/injection, schedule: Q01DX009 (ip), vehicle: saline + alcohol) was 171 % of control. For the same compound, the T/C (dose: 1000.0 micrograms/kg/injection, schedule: Q01DX009 (ip), vehicle: saline + alcohol) was 160 % of control and 197 % of control and the T/C (dose: 2000.0 micrograms/kg/injection, schedule: Q01DX009 (ip), vehicle: saline + alcohol) was 152 % of control.

In the case of `Brc1cnc2ccccn12`, the T/C [4] is reported as 101 % of control, the T/C [5] is reported as 102 % of control and the T/C [6] is reported as 114 % of control.

For `CCCNc1ncc(C(=O)O)c(=O)[nH]1`, the T/C (dose: 1.56 mg/kg/injection, schedule: Q01DX009 (ip), vehicle: saline with Tween-80) was 104 % of control, the T/C (dose: 3.12 mg/kg/injection, schedule: Q01DX009 (ip), vehicle: saline with Tween-80) was 95 % of control and the T/C (dose: 6.25 mg/kg/injection, schedule: Q01DX009 (ip), vehicle: saline with Tween-80) was 95 % of control.

For `O=C(N1CCCCC1Cc1ccccc1)C(Cl)(Cl)Cl` (stereo unspecified), the T/C (dose: 30.0 mg/kg/injection, schedule: Q01DX005 (ip), vehicle: Klucel (hydroxypropylcellulose) (HPC)) was 101 % of control and the T/C (dose: 60.0 mg/kg/injection, schedule: Q01DX005 (ip), vehicle: Klucel (hydroxypropylcellulose) (HPC)) was 101 % of control.

With `CC(C)CC(NC(=O)C(Cc1ccccc1)NC(=O)OCCc1ccccn1)C(=O)OC(C)(C)C` (stereo unspecified) the T/C (dose: 60.0 mg/kg/injection, schedule: Q01DX005 (ip), vehicle: saline) was 101 % of control, the T/C (dose: 120.0 mg/kg/injection, schedule: Q01DX005 (ip), vehicle: saline) was 95 % of control and the T/C (dose: 240.0 mg/kg/injection, schedule: Q01DX005 (ip), vehicle: saline) was 87 % of control.

In the case of `COc1ccc(/C=C/c2c(C(=O)O)oc3ccccc23)cc1`, the T/C [4] is reported as 103 % of control, the T/C [5] is reported as 95 % of control and the T/C [6] is reported as 112 % of control.

With `Cn1c(=O)[nH]c(=O)c2nc(-c3ccccc3)c(-c3ccccc3)nc21` the T/C (dose: 100.0 mg/kg/injection, schedule: Q01DX001 (ip), vehicle: Klucel (hydroxypropylcellulose) (HPC)) was 96 % of control, the T/C (dose: 200.0 mg/kg/injection, schedule: Q01DX001 (ip), vehicle: Klucel (hydroxypropylcellulose) (HPC)) was 99 % of control and the T/C (dose: 400.0 mg/kg/injection, schedule: Q01DX001 (ip), vehicle: Klucel (hydroxypropylcellulose) (HPC)) was 96 % of control.

In the case of `COc1ccc(C(=O)c2ccccc2)c(C(=O)O)c1`, the T/C [1] is reported as 101 % of control, the T/C [2] is reported as 97 % of control and the T/C [3] is reported as 104 % of control.
